According to patent publication US20180044306A1, “1,3,4-THIADIAZOL-2-YL-BENZAMIDE DERIVATIVES AS INHIBITORS OF THE WNT SIGNALLING PATHWAY” (Bayer Pharma Aktiengesellschaft, priority 2015, published 2018):

Assays:
[1] = test system: constitutive active colorectal cancer cell (CRC) Wnt pathway (HCT116-TOP); assay: Cellular reporter assay, HCT116 Super TopFlash (TOP), constitutive active Wnt pathway; assay type: cell-based; conditions: Homo sapiens, HCT-116; HCT116 Super TopFlash reporter cells, luciferase expression, 36 hours incubation, dilution series 50 μM to 15 nM
Experimental: In order to discover and characterize small molecules which inhibit the constitutive active colorectal cancer cell (CRC) Wnt pathway, a cellular reporter assay was employed. The corresponding assay cell was generated by transfection of the colorectal cancer cell line HCT116 (ATCC, #CCL-247) with the Super TopFlash vector (Morin, Science 275, 1997, 1787-1790; Molenaar et al., Cell 86 (3), 1996, 391-399). The HCT116 cell line is cultivated at 37° C. and 5% CO2 in DMEM/F-12 (Life Technologies, #11320-074), supplemented with 2 mM glutamine, 20 mM HEPES, 1.4 mM pyruvate, 0.15% Na-bicarbonate and 10% foetal bovine serum (GIBCO, #10270), this cancer cell line is pathophysiological relevant since it carries a deletion of position S45 in the β-catenin gene, leading to constitutive active Wnt signaling. Stable transfectants were generated by cotransfection with pcDNA3 and selection of stable transfected cells with 1 mg/ml G418.
(§1) In preparation of the assay, the two cell lines were plated 24 hours before at 10000 cells per well of a 384 micro titre plate (MTP) in 30 μL growth medium. Selective inhibitory activity for small molecules on the mutated Wnt pathway was determined after parallel incubation of both (TOP and FOP) HCT116 reporter cell lines with a compound dilution series from 50 μM to 15 nM in steps of 3.16-fold dilutions in CAFTY buffer (130 mM NaCI, 5 mM KCI, 20 mM HEPES, 1 mM MgCl2, 5 mM NaHCO3, pH 7.4) containing 2 mM Ca^2+ and 0.01% BSA. The compounds were thereby serially prediluted in 100% DMSO and thereafter in addition 50 fold into the CAFTY compound dilution buffer (described above). From this dilution 10 μL were added to the cells in 30 μL growth medium and incubated for 36 hours at 37° C. and 5% CO2. Thereafter luciferase assay buffer (1:1 mixture of luciferase substrate buffer (20 mM Tricine, 2.67 mM MgSO4, 0.1 mM EDTA, 4 mM DTT, 270 μM Coenzyme A, 470 μM Luciferin, 530 μM ATP, ph adjusted to pH 7.8 with a sufficient volume of 5M NaOH) and Triton buffer (30 mL Triton X-100, 115 mL glycerol, 308 mg Dithiothreitol, 4.45 g Na2HPO4. 2 H2O, 3.03 g TRIS HCl, ad 1I H2O, pH 7.8) was added as equal volume to the compound solution on the cells to determine luciferase expression as a measure of Wnt signaling activity in a luminometer.

[2] = test system: HCT116-FOP; assay: Control reporter assay, HCT116 cells with FOP control vector (non-functional TCF elements); assay type: cell-based; conditions: Homo sapiens, HCT-116, luciferase expression, 36 hours incubation, dilution series 50 μM to 15 nM, read-out: HCT116-FOP IC50 [M] mol/L]
Experimental: In a parallel approach, HCT116 cells were cotransfected with the FOP control vector and pcDNA3. The FOP vector is identical to the TOP construct, but it contains instead of functional TCF elements a randomized, non-functional sequence. For this transfection a stable transfected cell line was generated as well.
as §1

| IC50 [1] [µM] | IC50 [2] [M] | SMILES |
| --- | --- | --- |
| 0.36 | ≥ 5e-05 | CN1CCN(CC(=O)Nc2cc(C(=O)Nc3nnc(N4CCCCC4)s3)ccc2OC(F)(F)F)CC1 [Example 1, 3-{[(4-methylpiperazin-1-yl)pacetyl]amino}-N-[5-(piperidin-1-yl)-1,3,4-thiadiazol-2-yl]-4-(trifluoromethoxy)benzamide] |
| 0.0415 | ≥ 5e-05 | CN1CCN(CC(=O)Nc2cc(C(=O)Nc3nnc(N4CCN(C(=O)OC(C)(C)C)CC4)s3)ccc2OC(F)(F)F)CC1 [Example 2] |
| 0.086 | ≥ 5e-05 | CC(C)(C)OC(=O)N1CCN(c2nnc(NC(=O)c3ccc(OC(F)(F)F)c(NC(=O)CN4CCOCC4)c3)s2)CC1 [Example 3, tert-butyl 4-[5-({3-[(morpholin-4-ylacetyl)amino]-4-(trifluoromethoxy)benzoyl}amino)-1,3,4-thiadiazol-2-yl]piperazine-1-carboxylate] |
| 0.492 | ≥ 5e-05 | CN1CCN(CC(=O)Nc2cc(C(=O)Nc3nnc(N4CCCC4)s3)ccc2OC(F)(F)F)CC1 [Example 4, 3-{[(4-methylpiperazin-1-yl)pacetyl]amino}-N-[5-(pyrrolidin-1-yl)-1,3,4-thiadiazol-2-yl]-4-(trifluoromethoxy)benzamide] |
| 0.27 | ≥ 5e-05 | CN1CCN(CC(=O)Nc2cc(C(=O)Nc3nnc(C4CCCCC4)s3)ccc2OC(F)(F)F)CC1 [Example 5, N-(5-cyclohexyl-1,3,4-thiadiazol-2-yl)-3-{[(4-methylpiperazin-1-yl)pacetyl]amino}-4-(trifluoromethoxy)benzamide] |
| 0.0655 | 4.65e-05 | COC(=O)N1CCN(c2nnc(NC(=O)c3ccc(OC(F)(F)F)c(NC(=O)CN4CCN(C)CC4)c3)s2)CC1 [Example 6, methyl 4-(5-{[3-{[(4-methylpiperazin-1-yl)pacetyl]amino}-4-(trifluoromethoxy)benzoyl]amino}-1,3,4-thiadiazol-2-yl)ppiperazine-1-carboxylate] |
| 0.11 | ≥ 5e-05 | CC1CCN(c2nnc(NC(=O)c3ccc(OC(F)(F)F)c(NC(=O)CN4CCN(C)CC4)c3)s2)CC1 [Example 7] |
| 0.655 | ≥ 5e-05 | CN1CCN(CC(=O)Nc2cc(C(=O)Nc3nnc(N4CCC(C)(O)CC4)s3)ccc2OC(F)(F)F)CC1 [Example 8, N-[5-(4-hydroxy-4-methylpiperidin-1-yl)-1,3,4-thiadiazol-2-yl]-3-{[(4-methylpiperazin-1-yl)pacetyl]amino}-4-(trifluoromethoxy)benzamide] |
| 0.83 | 1.8e-05 | CN1CCN(CC(=O)Nc2cc(C(=O)Nc3nnc(N4CCN(C(=O)C5CC5)CC4)s3)ccc2OC(F)(F)F)CC1 [Example 9] |
| 0.84 | ≥ 5e-05 | CC(C)(O)C1CCN(c2nnc(NC(=O)c3ccc(OC(F)(F)F)c(NC(=O)CN4CCOCC4)c3)s2)CC1 [Example 10] |
| 0.22 | ≥ 5e-05 | COC1CCN(c2nnc(NC(=O)c3ccc(OC(F)(F)F)c(NC(=O)CN4CCN(C)CC4)c3)s2)CC1 [Example 11, N-{5-(4-methoxypiperidin-1-yl)-1,3,4-thiadiazol-2-yl]-3-{[(4-methylpiperazin-1-yl)acetyl]amino}-4-(trifluoromethoxy)benzamide] |
| 1.4 | ≥ 5e-05 | CCOC(=O)N1CCN(c2nnc(NC(=O)c3ccc(OC(F)(F)F)c(NC(=O)CN4CCOCC4)c3)s2)CC1 [Example 13, ethyl 4-[5-({3-[(morpholin-4-yl-acetyl)amino]-4-(trifluoromethoxy)benzoyl}-amino)-1,3,4-thiadiazol-2-yl]piperazine-1-carboxylate] |
| 1.45 | ≥ 5e-05 | CN1CCN(CC(=O)Nc2cc(C(=O)Nc3nnc(N4CCC(O)CC4)s3)ccc2OC(F)(F)F)CC1 [Example 14, N-[5-(4-hydroxypiperidin-1-yl)-1,3,4-thiadiazol-2-yl]-3-{[(4-methylpiperazin-1-yl)acetyl]amino}-4-(trifluoromethoxy)benzamide] |
| 1.99 | ≥ 5e-05 | CN(C)S(=O)(=O)N1CCN(c2nnc(NC(=O)c3ccc(OC(F)(F)F)c(NC(=O)CN4CCOCC4)c3)s2)CC1 [Example 15, N-{5-[4-(dimethylsulfamoyl)-piperazin-1-yl]-1,3,4-thiadiazol-2-yl}-3-[(morpholin-4-ylacetyl)-amino]-4-(trifluoromethoxy) benzamide] |
| 2.1 | ≥ 5e-05 | CN1CCN(CC(=O)Nc2cc(C(=O)Nc3nnc(N4CCN(C(=O)N(C)C)CC4)s3)ccc2OC(F)(F)F)CC1 [Example 16, N,N-dimethyl-4-(5-{[3-{[(4-methylpiperazin-1-yl)acetyl]-amino}-4-(trifluoromethoxy)-benzoyl]amino}-1,3,4-thiadiazol-2-yl)piperazine-1-carboxamide] |
| 2.85 | 4.1e-05 | CCOC(=O)N1CCN(c2nnc(NC(=O)c3ccc(OC(F)(F)F)c(NC(=O)CN4CCN(C)CC4)c3)s2)CC1 [Example 17, ethyl 4-(5-{[3-{[(4-methylpiperazin-1-yl)acetyl]-amino}-4-(trifluoromethoxy)-benzoyl]amino}-1,3,4-thiadiazol-2-yl)piperazine-1-carboxylate] |
| 3.15 | ≥ 5e-05 | CC(=O)N1CCN(c2nnc(NC(=O)c3ccc(OC(F)(F)F)c(NC(=O)CN4CCN(C)CC4)c3)s2)CC1 [Example 18, N-[5-(4-acetylpiperazin-1-yl)-1,3,4-thiadiazol-2-yl]-3-{[(4-methylpiperazin-1-yl)-acetyl]amino}-4-(trifluoromethoxy)benzamide] |
| 3.8 | ≥ 5e-05 | CN1CCN(CC(=O)Nc2cc(C(=O)Nc3nnc(N4CCN(S(=O)(=O)N(C)C)CC4)s3)ccc2OC(F)(F)F)CC1 [Example 19, N-{5-[4-(dimethylsulfamoyl)-piperazin-1-yl]-1,3,4-thiadiazol-2-yl}-3-{[(4-methylpiperazin-1-yl)acetyl]-amino}-4-(trifluoromethoxy)-benzamide] |
| 3.91 | ≥ 5e-05 | O=C(CN1CCOCC1)Nc1cc(C(=O)Nc2nnc(N3CCN(C(=O)C4CC4)CC3)s2)ccc1OC(F)(F)F [Example 20, N-{5-[4-(cyclopropylcarbonyl)-piperazin-1-yl]-1,3,4-thiadiazol-2-yl}-3-[(morpholin-4-ylacetyl)amino]-4-(trifluoromethoxy)benzamide] |
| 4.1 | ≥ 5e-05 | COC(=O)C1CCN(c2nnc(NC(=O)c3ccc(OC(F)(F)F)c(NC(=O)CN4CCOCC4)c3)s2)CC1 [Example 21, methyl 1-[5-({3-[(morpholin-4-ylacetyl)amino]-4-(trifluoromethoxy)benzoyl}-amino)-1,3,4-thiadiazol-2-yl]-piperidine-4-carboxylate] |
| 4.3 | ≥ 5e-05 | COC(=O)C1CCN(c2nnc(NC(=O)c3ccc(OC(F)(F)F)c(NC(=O)CN4CCN(C)CC4)c3)s2)CC1 [Example 22, methyl 1-(5-{[3-{[(4-methyl-piperazin-1-yl)acetyl]amino}-4-(trifluoromethoxy)benzoyl]-amino}-1,3,4-thiadiazol-2-yl)-piperidine-4-carboxylate] |
| 4.59 | ≥ 5e-05 | O=C(CN1CCOCC1)Nc1cc(C(=O)Nc2nnc(C3CCCCC3)s2)ccc1OC(F)(F)F [Example 23, N-(5-cyclohexyl-1,3,4-thiadiazol-2-yl)-3-[(morpholin-4-ylacetyl)amino]-4-(trifluoromethoxy)benzamide] |
| 4.6 | ≥ 5e-05 | COC(=O)N1CCN(c2nnc(NC(=O)c3ccc(OC(F)(F)F)c(NC(=O)CN4CCOCC4)c3)s2)CC1 [Example 24, methyl 4-[5-({3-[(morpholin-4-ylacetyl)amino]-4-(trifluoromethoxy)benzoyl}-amino)-1,3,4-thiadiazol-2-yl]piperazine-1-carboxylate] |

| SMILES | IC50 [1] [µM] | IC50 [2] [M] |
| --- | --- | --- |
| CN1CCN(CC(=O)Nc2cc(C(=O)Nc3nnc(N4CCC(C)(C)CC4)s3)ccc2OC(F)(F)F)CC1 [Example 12, 4-(2-{[5-{[5-(4,4-dimethylpiperidin-1-yl)-1,3,4-thiadiazol-2-yl]carbamoyl}-2-(trifluoromethoxy)phenyl]amino}-2-oxoethyl)-1-methylpiperazin-1-ium hexafluorophosphate] | 0.26 | 1.5e-05 |
